Reference: US20120029187A1, “HALOALKYLSULFONANILIDE DERIVATIVE” (Nissan Chemical Industries, Ltd., priority 2009, published 2012)

Assays:
Format in all cases: in vivo
bulrush [1] = assay: Test Example 1: herbicidal effects in preemergence treatment under submerged conditions; conditions: dose 2.52 g/a
Procedure, shortened: (§1)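 Submerged conditions, 4 cm water over alluvial soil. Weeds sown and 2.5-leaf rice transplanted; compound applied preemergence to water surface, doses in g per are. Greenhouse, 25 to 30° C., three weeks, then 0–5 mortality rating.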

barnyardgrass [2] = assay: as above; conditions: dose 2.52 g/a
Procedure, shortened: as §1

ducksalad [3] = assay: as above; conditions: dose 2.52 g/a
Procedure, shortened: as §1

bulrush [4] = assay: Test Example 2: herbicidal effects during the vegetation period under submerged conditions; conditions: treatment during the vegetation period under submerged conditions; dose 2.52 g/a
Procedure, shortened: (§2)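 Barnyardgrass, bulrush and ducksalad were co-sown in alluvial soil flooded to 4 cm and grown in a greenhouse at 25 to 30° C. At the 1- or 2-leaf stage, water-diluted emulsifiable concentrates went onto the water surface at set doses (g/a). Herbicidal effect was scored three weeks later on a graded scale.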

barnyardgrass [5] = assay: as above; conditions: treatment during the vegetation period under submerged conditions; dose 2.52 g/a
Procedure, shortened: as §2

ducksalad [6] = assay: as above; conditions: treatment during the vegetation period under submerged conditions; dose 2.52 g/a
Procedure, shortened: as §2

Italian ryegrass [7] = assay: Test Example 4: herbicidal effect in foliage treatment; conditions: dose 3.2 g/a, three weeks after application
Procedure, shortened: (§3)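 Weeds and crops sown in sterilized diluvial soil under ~1.5 cm cover and grown in greenhouse at 25 to 30° C. At 14 days, water-diluted emulsifiable concentrate sprayed onto foliage at set doses (g/a); herbicidal effect scored on a rating scale three weeks after application.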

posumbu knotweed = assay: as above; conditions: dose 3.2 g/a, three weeks after application
Procedure, shortened: as §3

giant foxtail [8] = assay: as above; conditions: dose 3.2 g/a, three weeks after application
Procedure, shortened: as §3

barnyardgrass [9] = assay: as above; conditions: dose 3.2 g/a, three weeks after application
Procedure, shortened: as §3

water foxtail [10] = assay: as above; conditions: dose 3.2 g/a, three weeks after application
Procedure, shortened: as §3

common ragweed [11] = assay: as above; conditions: dose 3.2 g/a, three weeks after application
Procedure, shortened: as §3

velvetleaf [12] = assay: as above; conditions: dose 3.2 g/a, three weeks after application
Procedure, shortened: as §3

common lambsquater [13] = assay: as above; conditions: dose 3.2 g/a, three weeks after application
Procedure, shortened: as §3

large crabgrass [14] = assay: as above; conditions: dose 3.2 g/a, three weeks after application
Procedure, shortened: as §3

wild oat [15] = assay: as above; conditions: dose 3.2 g/a, three weeks after application
Procedure, shortened: as §3

common chickweed [16] = assay: as above; conditions: dose 3.2 g/a, three weeks after application
Procedure, shortened: as §3

beadstraw = assay: as above; conditions: dose 3.2 g/a, three weeks after application
Procedure, shortened: as §3

redroot pigweed [17] = assay: as above; conditions: dose 3.2 g/a, three weeks after application
Procedure, shortened: as §3

transplanted rice = assay: Test Example 1: preemergence treatment under submerged conditions, effect on crop; conditions: dose 2.52 g/a
Procedure, shortened: as §1

Italian ryegrass [18] = assay: Test Example 3: herbicidal effects in soil treatment; conditions: dose 3.2 g/a
Procedure, shortened: (§4)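 Seeds were sown in sterilized diluvial soil and covered with about 1.5 cm of soil. Compounds, formulated as emulsifiable concentrates and diluted with water, were sprayed evenly over the soil surface at set doses in g/a. Herbicidal effect was scored on a rating scale three weeks later.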

giant foxtail [19] = assay: as above; conditions: dose 3.2 g/a
Procedure, shortened: as §4

barnyardgrass [20] = assay: as above; conditions: dose 3.2 g/a
Procedure, shortened: as §4

water foxtail [21] = assay: as above; conditions: dose 3.2 g/a
Procedure, shortened: as §4

common ragweed [22] = assay: as above; conditions: dose 3.2 g/a
Procedure, shortened: as §4

velvetleaf [23] = assay: as above; conditions: dose 3.2 g/a
Procedure, shortened: as §4

common lambsquater [24] = assay: as above; conditions: dose 3.2 g/a
Procedure, shortened: as §4

large crabgrass [25] = assay: as above; conditions: dose 3.2 g/a
Procedure, shortened: as §4

wild oat [26] = assay: as above; conditions: dose 3.2 g/a
Procedure, shortened: as §4

common chickweed [27] = assay: as above; conditions: dose 3.2 g/a
Procedure, shortened: as §4

redroot pigweed [28] = assay: as above; conditions: dose 3.2 g/a
Procedure, shortened: as §4

CC(C)COC(=O)N(c1ccccc1CN1COC(c2ccccc2)CC1=O)S(=O)(=O)C(F)(F)F (centres unmarked) [II-13]
B: bulrush, herbicidal effect (evaluation scale 0-5) (bulrush [1]): 5 (mortality of 90% or above (nearly complete death)) | A: barnyardgrass, herbicidal effect (evaluation scale 0-5) (barnyardgrass [2]): 5 (mortality of 90% or above (nearly complete death)) | C: ducksalad, herbicidal effect (evaluation scale 0-5) (ducksalad [3]): 5 (mortality of 90% or above (nearly complete death)) | B: bulrush, herbicidal effect (evaluation scale 0-5) (bulrush [4]): 5 (mortality of 90% or above (nearly complete death)) | A: barnyardgrass, herbicidal effect (evaluation scale 0-5) (barnyardgrass [5]): 5 (mortality of 90% or above (nearly complete death)) | C: ducksalad, herbicidal effect (evaluation scale 0-5) (ducksalad [6]): 5 (mortality of 90% or above (nearly complete death)) | H: Italian ryegrass, herbicidal effect (Italian ryegrass [7]): 0 (mortality of less than 5% (almost ineffective)) | M: posumbu knotweed, herbicidal effect (posumbu knotweed): 1 (mortality of at least 5% and less than 20%) | E: giant foxtail, herbicidal effect (giant foxtail [8]): 0 (mortality of less than 5% (almost ineffective)) | A: barnyardgrass, herbicidal effect (barnyardgrass [9]): 2 (mortality of at least 20% and less than 40%) | G: water foxtail, herbicidal effect (water foxtail [10]): 0 (mortality of less than 5% (almost ineffective)) | J: common ragweed, herbicidal effect (common ragweed [11]): 4 (mortality of at least 70% and less than 90%) | I: velvetleaf, herbicidal effect (velvetleaf [12]): 0 (mortality of less than 5% (almost ineffective)) | L: common lambsquater, herbicidal effect (common lambsquater [13]): 0 (mortality of less than 5% (almost ineffective)) | D: large crabgrass, herbicidal effect (large crabgrass [14]): 2 (mortality of at least 20% and less than 40%) | F: wild oat, herbicidal effect (wild oat [15]): 0 (mortality of less than 5% (almost ineffective)) | N: common chickweed, herbicidal effect (common chickweed [16]): 3 (mortality of at least 40% and less than 70%) | O: beadstraw, herbicidal effect (beadstraw): 4 (mortality of at least 70% and less than 90%) | K: redroot pigweed, herbicidal effect (redroot pigweed [17]): 0 (mortality of less than 5% (almost ineffective)) | a: transplanted rice, effect on crop (evaluation scale 0-5) (transplanted rice): 0 (mortality of less than 5% (almost ineffective)) | H: Italian ryegrass, herbicidal effect (evaluation scale 0-5) (Italian ryegrass [18]): 0 (mortality of less than 5% (almost ineffective)) | E: giant foxtail, herbicidal effect (evaluation scale 0-5) (giant foxtail [19]): 4 (mortality of at least 70% and less than 90%) | A: barnyardgrass, herbicidal effect (evaluation scale 0-5) (barnyardgrass [20]): 3 (mortality of at least 40% and less than 70%) | G: water foxtail, herbicidal effect (evaluation scale 0-5) (water foxtail [21]): 0 (mortality of less than 5% (almost ineffective)) | J: common ragweed, herbicidal effect (evaluation scale 0-5) (common ragweed [22]): 0 (mortality of less than 5% (almost ineffective)) | I: velvetleaf, herbicidal effect (evaluation scale 0-5) (velvetleaf [23]): 0 (mortality of less than 5% (almost ineffective)) | L: common lambsquater, herbicidal effect (evaluation scale 0-5) (common lambsquater [24]): 0 (mortality of less than 5% (almost ineffective)) | D: large crabgrass, herbicidal effect (evaluation scale 0-5) (large crabgrass [25]): 2 (mortality of at least 20% and less than 40%) | F: wild oat, herbicidal effect (evaluation scale 0-5) (wild oat [26]): 0 (mortality of less than 5% (almost ineffective)) | N: common chickweed, herbicidal effect (evaluation scale 0-5) (common chickweed [27]): 0 (mortality of less than 5% (almost ineffective)) | K: redroot pigweed, herbicidal effect (evaluation scale 0-5) (redroot pigweed [28]): 0 (mortality of less than 5% (almost ineffective))

CC1(C)CN(Cc2ccccc2NS(=O)(=O)C(F)(F)F)C(=O)CO1 [Compound I-15]
B: bulrush, herbicidal effect (evaluation scale 0-5) (bulrush [1]): 5 (mortality of 90% or above (nearly complete death)) | A: barnyardgrass, herbicidal effect (evaluation scale 0-5) (barnyardgrass [2]): 5 (mortality of 90% or above (nearly complete death)) | C: ducksalad, herbicidal effect (evaluation scale 0-5) (ducksalad [3]): 5 (mortality of 90% or above (nearly complete death)) | B: bulrush, herbicidal effect (evaluation scale 0-5) (bulrush [4]): 5 (mortality of 90% or above (nearly complete death)) | A: barnyardgrass, herbicidal effect (evaluation scale 0-5) (barnyardgrass [5]): 5 (mortality of 90% or above (nearly complete death)) | C: ducksalad, herbicidal effect (evaluation scale 0-5) (ducksalad [6]): 5 (mortality of 90% or above (nearly complete death)) | H: Italian ryegrass, herbicidal effect (Italian ryegrass [7]): 4 (mortality of at least 70% and less than 90%) | M: posumbu knotweed, herbicidal effect (posumbu knotweed): 4 (mortality of at least 70% and less than 90%) | E: giant foxtail, herbicidal effect (giant foxtail [8]): 4 (mortality of at least 70% and less than 90%) | A: barnyardgrass, herbicidal effect (barnyardgrass [9]): 5 (mortality of 90% or above (nearly complete death)) | G: water foxtail, herbicidal effect (water foxtail [10]): 5 (mortality of 90% or above (nearly complete death)) | J: common ragweed, herbicidal effect (common ragweed [11]): 4 (mortality of at least 70% and less than 90%) | I: velvetleaf, herbicidal effect (velvetleaf [12]): 5 (mortality of 90% or above (nearly complete death)) | L: common lambsquater, herbicidal effect (common lambsquater [13]): 3 (mortality of at least 40% and less than 70%) | D: large crabgrass, herbicidal effect (large crabgrass [14]): 4 (mortality of at least 70% and less than 90%) | F: wild oat, herbicidal effect (wild oat [15]): 1 (mortality of at least 5% and less than 20%) | N: common chickweed, herbicidal effect (common chickweed [16]): 4 (mortality of at least 70% and less than 90%) | O: beadstraw, herbicidal effect (beadstraw): 4 (mortality of at least 70% and less than 90%) | K: redroot pigweed, herbicidal effect (redroot pigweed [17]): 3 (mortality of at least 40% and less than 70%) | a: transplanted rice, effect on crop (evaluation scale 0-5) (transplanted rice): 1 (mortality of at least 5% and less than 20%) | H: Italian ryegrass, herbicidal effect (evaluation scale 0-5) (Italian ryegrass [18]): 5 (mortality of 90% or above (nearly complete death)) | E: giant foxtail, herbicidal effect (evaluation scale 0-5) (giant foxtail [19]): 3 (mortality of at least 40% and less than 70%) | A: barnyardgrass, herbicidal effect (evaluation scale 0-5) (barnyardgrass [20]): 5 (mortality of 90% or above (nearly complete death)) | G: water foxtail, herbicidal effect (evaluation scale 0-5) (water foxtail [21]): 5 (mortality of 90% or above (nearly complete death)) | J: common ragweed, herbicidal effect (evaluation scale 0-5) (common ragweed [22]): 5 (mortality of 90% or above (nearly complete death)) | I: velvetleaf, herbicidal effect (evaluation scale 0-5) (velvetleaf [23]): 5 (mortality of 90% or above (nearly complete death)) | L: common lambsquater, herbicidal effect (evaluation scale 0-5) (common lambsquater [24]): 4 (mortality of at least 70% and less than 90%) | D: large crabgrass, herbicidal effect (evaluation scale 0-5) (large crabgrass [25]): 5 (mortality of 90% or above (nearly complete death)) | F: wild oat, herbicidal effect (evaluation scale 0-5) (wild oat [26]): 3 (mortality of at least 40% and less than 70%) | N: common chickweed, herbicidal effect (evaluation scale 0-5) (common chickweed [27]): 4 (mortality of at least 70% and less than 90%) | K: redroot pigweed, herbicidal effect (evaluation scale 0-5) (redroot pigweed [28]): 5 (mortality of 90% or above (nearly complete death))
